Source: patent publication US20230002377A1, “THERAPEUTIC COMBINATIONS OF DRUGS AND METHODS OF USING THEM” (HARMONY BIOSCIENCES, LLC, priority 2020, published 2023)

Experiments:
[1] = molecular target: Transporter, Dopamine (DAT) (Homo sapiens, UniProt Q01959); test: DAT radioligand binding ([125I] RTI-55), Eurofins; conditions: read-out: DAT, % inhibition, 100 nM compound
Description: Source: Human recombinant CHO—S cells;
Incubation Time/Temp: 3 hours @ 4° C.;
(§2) Incubation Buffer: 50 mM Tris-HCl, pH 7.4, 100 mM NaCl, 1 μM Leupeptin, 10 μM PMSF;
Non-Specific Ligand: 10.0 μM Nomifensine;
Specific Binding: 90% (Historical Values);
(§3) Quantitation Method: Radioligand Binding;

[2] = molecular target: Transporter, Norepinephrine (NET) (Homo sapiens, UniProt P23975); test: NET radioligand binding ([125I] RTI-55), Eurofins; conditions: for inhibition at 0.01 µM: read-out: NET, % inhibition, 10 nM compound; for inhibition at 0.1 µM: read-out: NET, % inhibition, 100 nM compound
Chain of Transporter, Norepinephrine (NET) (P23975 whole entry): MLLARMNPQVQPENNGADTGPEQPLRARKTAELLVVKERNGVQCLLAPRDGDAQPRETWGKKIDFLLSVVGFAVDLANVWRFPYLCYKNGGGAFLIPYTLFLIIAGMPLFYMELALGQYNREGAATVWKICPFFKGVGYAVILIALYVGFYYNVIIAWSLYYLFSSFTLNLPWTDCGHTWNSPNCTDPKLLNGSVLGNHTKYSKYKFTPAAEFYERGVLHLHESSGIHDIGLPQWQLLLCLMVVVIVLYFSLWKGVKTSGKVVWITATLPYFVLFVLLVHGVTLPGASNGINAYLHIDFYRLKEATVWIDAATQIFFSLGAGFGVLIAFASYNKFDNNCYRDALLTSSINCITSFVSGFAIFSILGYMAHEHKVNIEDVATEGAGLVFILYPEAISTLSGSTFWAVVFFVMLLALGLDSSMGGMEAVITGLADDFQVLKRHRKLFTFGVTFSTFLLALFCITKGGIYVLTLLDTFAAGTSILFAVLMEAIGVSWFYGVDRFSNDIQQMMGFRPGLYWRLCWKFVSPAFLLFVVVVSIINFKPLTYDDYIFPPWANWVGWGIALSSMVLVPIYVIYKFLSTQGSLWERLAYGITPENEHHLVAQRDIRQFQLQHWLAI
Description: Source: Human recombinant MDCK cells;
Incubation Time/Temp: 3 hours @ 4° C.;
as §2
Non-Specific Ligand: 10.0 μM Desipramine;
as §3

DAT = molecular target: T1, DAT (Homo sapiens, UniProt Q01959); conditions: approved monoamine reuptake inhibitors at efficacious doses, cited from earlier work
T1 construct: host or cells: living brain (PET)
T1 sequence (Q01959 whole entry): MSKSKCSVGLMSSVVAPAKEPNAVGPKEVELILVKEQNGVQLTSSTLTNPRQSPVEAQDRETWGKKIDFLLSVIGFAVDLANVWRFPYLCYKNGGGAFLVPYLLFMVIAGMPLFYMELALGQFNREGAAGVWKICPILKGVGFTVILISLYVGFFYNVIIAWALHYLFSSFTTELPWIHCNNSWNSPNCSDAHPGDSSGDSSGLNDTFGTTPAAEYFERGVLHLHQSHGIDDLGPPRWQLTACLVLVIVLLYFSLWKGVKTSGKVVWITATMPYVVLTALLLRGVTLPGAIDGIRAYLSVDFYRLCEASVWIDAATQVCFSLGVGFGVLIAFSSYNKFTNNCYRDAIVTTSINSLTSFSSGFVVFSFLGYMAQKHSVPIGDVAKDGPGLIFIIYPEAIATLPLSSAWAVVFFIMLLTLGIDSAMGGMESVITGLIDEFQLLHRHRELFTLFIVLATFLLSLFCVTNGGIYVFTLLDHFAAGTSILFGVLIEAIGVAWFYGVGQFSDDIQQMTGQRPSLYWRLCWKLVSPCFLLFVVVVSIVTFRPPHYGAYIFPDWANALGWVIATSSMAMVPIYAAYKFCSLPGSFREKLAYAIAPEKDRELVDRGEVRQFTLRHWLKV

NET = NET (Homo sapiens, UniProt P23975); conditions: at efficacious doses; cited from earlier work
Chain of NET (P23975 whole entry): as the sequence (P23975 whole entry) above

PWS patients = conditions: standard mg/day dosing, cited from earlier work
[3] = Metabolite level of Formula II in phase I clinical trial; assay type: in vivo, human; conditions: healthy volunteers
Description: (§1) By substituting the hydrogens with deuterium on the carbon(s) adjacent to the nitrogen which is acetylated (see for example, Examples 5 to 7), acetylation process can be slowed down to reduce the formation of this metabolite.

MCHR1 = MCHR1 (Homo sapiens, UniProt Q99705); test: Contribution of N-acetyl metabolite to MCHR1 antagonism
Chain of MCHR1 (Q99705 whole entry, species assumed): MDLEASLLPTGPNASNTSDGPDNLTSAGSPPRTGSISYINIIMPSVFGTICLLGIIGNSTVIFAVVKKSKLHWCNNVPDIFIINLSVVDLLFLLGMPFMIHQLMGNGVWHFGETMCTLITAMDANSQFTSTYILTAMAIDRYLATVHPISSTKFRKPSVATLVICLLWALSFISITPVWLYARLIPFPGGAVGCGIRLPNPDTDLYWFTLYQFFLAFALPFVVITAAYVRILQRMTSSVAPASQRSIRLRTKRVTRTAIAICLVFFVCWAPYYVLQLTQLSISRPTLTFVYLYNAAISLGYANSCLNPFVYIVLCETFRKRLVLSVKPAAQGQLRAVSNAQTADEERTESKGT
Description: as §1

Chain of Transporter, Dopamine (DAT) (Q01959 whole entry): as the sequence (Q01959 whole entry) above

[2H]C1([2H])NC([2H])([2H])C([2H])(c2ccc(Cl)c(Cl)c2)c2ccc(-c3ccc4ncnn4c3)cc21 (single isomer, unassigned) [Compound 8A, 7-([1,2,4]triazolo[1,5-a]pyridin-6-yl)-4-(3,4-dichlorophenyl)-1,2,3,4-tetrahydroisoquinoline-1,1,3,3,4-d5]
inhibition at 0.1 µM [1]: 93%
inhibition at 0.01 µM [2]: 29%
inhibition at 0.1 µM [2]: 86%

COC(=O)C(c1ccccc1)C1CCCCN1 (stereo not shown) [Methylphenidate, methylphenidate]
Highest Occupancy DAT (DAT; highest reported): 74%

COc1ccc(C(CN(C)C)C2(O)CCCCC2)cc1 (stereo not shown) [Venlafaxine, venlafaxine]
NET occupancy (NET): 8-61%

[2H]C1([2H])NCC(c2ccc(Cl)c(Cl)c2)c2ccc(-c3ccc4ncnn4c3)cc21 (single isomer, unassigned) [Compound 12A, 7-([1,2,4]triazolo[1,5-a]pyridin-6-yl)-4-(3,4-dichlorophenyl)-1,2,3,4-tetrahydroisoquinoline-1,1-d2]
inhibition at 0.01 µM [2]: 34%
inhibition at 0.1 µM [2]: 79%

[2H]C1([2H])NCc2cc(-c3ccc4ncnn4c3)ccc2C1([2H])c1ccc(Cl)c(Cl)c1 (single isomer, unassigned) [Compound 16B, 7-([1,2,4]triazolo[1,5-a]pyridin-6-yl)-4-(3,4-dichlorophenyl)-1,2,3,4-tetrahydroisoquinoline-3,3,4-d3]
inhibition at 0.1 µM [1]: 76%
inhibition at 0.01 µM [2]: 49%
inhibition at 0.1 µM [2]: 72%

CCOC[C@@H]1[C@@H](c2ccc(Cl)c(Cl)c2)C[C@@H]2CC[C@H]1N2C [tesofensine]
hyperphagia in patients with the appropriate plasma drug level (PWS patients; PWS patients): hyperphagia controlled completely
patients with plasma drug levels exceeding the safety levels who discontinued the treatment due to adverse events (PWS patients; PWS patients): 2/3
efficacy after lowering the dosing for all patients (PWS patients; lowered dose): no efficacy

CC(=O)N1CCc2c(c3ccc(-n4ccc(OCc5ccc(F)cn5)cc4=O)cc3n2C)C1 [1-(2-acetyl-5-methyl-2,3,4,5-tetrahydro-1H-pyrido[4,3-b]indol-7-yl)-4-((5-fluoropyridin-2-yl)methoxy)pyridin-2(1H)-one]
amount of metabolite comparing to parent compound Formula II [3]: very significant
contribution to the pharmacology of MCHR1 antagonism (MCHR1): does not contribute to the pharmacology of MCHR1 antagonism

CC(NC(C)(C)C)C(=O)c1cccc(Cl)c1 (stereo not shown) [Bupropion, bupropion]
Lowest Occupancy DAT (DAT; lowest reported): 14% (Bupropion)
